Structures can show the parent of a compound that is named as a salt.
Tests used:
tested organism = assay: MIC comparison of equivalent ionic doses of Ag^+ from thiometal and from nitrate; antibacterial action of the anion; format: cell-based
[1] = effects to the skin (photosensitization, irritating, caustic)
solubility = format: physicochemical

Compound | antibacterical action (tested organism) | caustic effects to the skin [1] | irritating effects to the skin [1] | photosensitization [1] | Solubility (solubility; DMSO) | Solubility (solubility; absolute ethanol) | Solubility (solubility; acetone) | Solubility (solubility; ether) | Solubility (solubility; water (cold)) | activity in MIC in favour of the thiometal (tested organism; comparison of equivalent ionic doses of Ag^+ from thiometal and from nitrate, variable depending on the tested organism) [mcg/ml]
O=C(O)c1ccccc1S [mercapto sodium benzoate anion, sodium salt of the 2-mercaptobenzoic acid, reference compound] | does not develop an antibacterical action | – | – | – | – | – | – | – | – | –
O=C(O)c1ccccc1[S][Ag] [silver-2-mercapto sodium benzoate] | – | does not cause | does not cause | does not cause | moderately soluble | insoluble | insoluble | insoluble | soluble | -1.6 to -50

From patent EP0913399A1, “Silver -2-mercapto sodium benzoate pharmaceutical compound and process for obtaining the same” (Korban Medical S.a.s. di Longhetti Gianna & C., priority 1997, dated 1999)
